Tested on: RKO p21 uninduced (proliferating) colon adenocarcinoma cells
Test: Alamar Blue cell viability assay, RKO p21 uninduced (proliferating)
Type: cell-based
Conditions: Homo sapiens, Table B3, anti-proliferative/cytotoxic activity, 72 hours, read-out: −log EC50 RKO p21 uninduced (proliferating) (converted)
Procedure: The anti-proliferative/cytotoxic activity of the compounds described herein can be tested on subclones of RKO human colon adenocarcinoma cells (Schmidt et al., Oncogene 19, 2423-2429; 2000) using the Alamar Blue cell viability assay (described in O'Brien et al. Eur J Biochem 267, 5421-5426, 2000). The compounds are dissolved as 10 mM solutions in DMSO and subsequently diluted in semi-logarithmic steps. DMSO dilutions are further diluted 1:100 into Dulbecco's modified Eagle's medium (DMEM) containing 10% fetal calf serum to a final concentration twice as much as the final concentration in the test. RKO subclones are seeded into 96 well flat bottom plates at a density of 4000 cells per well in a volume of 50 μl per well. 24 hours after seeding the 50 μl each of the compound dilutions in DMEM medium are added into each well of the 96 well plate. Each compound dilution is tested as triplicates. Wells containing untreated control cells are filled with 50 μl DMEM medium containing 1% DMSO. The cells are then incubated with the substances for 72 hours at 37° C. in a humidified atmosphere containing 5% carbon dioxide. To determine the viability of the cells, 10 μl of an Alamar Blue solution (Biosource) are added and the fluorescence is measured at an extinction of 544 nm and an emission of 590 nm. For the calculation of the cell viability the emission value from untreated cells is set as 100% viability and the emission rates of treated cells are set in relation to the values of untreated cells. Viabilities are expressed as % values. The Graphpad Prism program is used for the calculation of EC50 values for anti-proliferative/cytotoxic activity out of the obtained dose-response curves.
To determine the cell cycle specific mode of action, subclones of RKO colon adenocarcinoma cells (RKOp21 or RKOp27 as described by Schmidt et al. in Oncogene 19, 2423-2429; 2000) are seeded into 96 well flat bottom plates at a density of 16000 cells per well in a volume of 50 μl per well in DMEM growth medium with 10% FCS containing 10 μM Ponasterone A. 24 hours after seeding the 50 μl each of the compound dilutions in DMEM medium are added into each well of the 96-well plate. Each compound dilution is tested as triplicates. Wells containing untreated control cells are filled with 50 μl DMEM medium containing 1% DMSO. The cells are then incubated with the substances for 72 hours at 37° C. in a humidified atmosphere containing 5% carbon dioxide. To determine the viability of the cells, 10 μl of an Alamar Blue solution (Biosource) are added and the fluorescence is measured at an extinction of 544 nm and an emission of 590 nm. For the calculation of the cell viability the emission value from untreated cells is set as 100% viability and the emission rates of treated cells are set in relation to the values of untreated cells. Viabilities are expressed as % values. The Graphpad Prism program (GraphPad Software, Inc) is used for the calculation of EC50 values out of the obtained dose-response curves. Viability is compared of proliferating cells grown in the absence of the inducer Ponasterone A, versus viability of cells arrested by the expression of ectopic p27Kip1 induced by Ponasterone A.
Representative values for anti-proliferation/cytotoxicity [measured as −log EC50 (mol/l)] determined in the aforementioned assays follow from the following tables B1, B2 and B3, in which the numbers of the compounds correspond to the numbers of the examples.

SMILES | EC50 [µM]
CCN(CCO)CCCN1C(=O)N2[C@H](c3cccc(O)c3)c3[nH]c4ccc(Cl)cc4c3C[C@@]2(C)C1=O (racemic) [Example 168, (3aSR,10RS)-6-Chloro-2-{3-[ethyl-(2-hydroxy-ethyl)-amino]-propyl}-10-(3-hydroxy-phenyl)-3a-methyl-3a,4,9,10-tetrahydro-2,9,10a-triaza-cyclopenta[b]fluorene-1,3-dione] | ≤ 0.0398
CCN(CCOC)CCN1C(=O)N2[C@H](c3cccc(O)c3)c3[nH]c4cc(F)c(Cl)cc4c3C[C@@]2(C)C1=O (racemic) [Example 350, (3aSR,10RS)-6-Chloro-2-{2-[ethyl-(2-methoxy-ethyl)-amino]-ethyl}-7-fluoro-10-(3-hydroxy-phenyl)-3a-methyl-3a,4,9,10-tetrahydro-2,9,10a-triaza-cyclopenta[b]fluorene-1,3-dione] | 0.0398 to 0.251
CC1CCN(CCN2C(=O)N3[C@H](c4cccc(O)c4)c4[nH]c5cc(F)c(Cl)cc5c4C[C@@]3(C)C2=O)CC1 (racemic) [Example 357, (3aSR,10RS)-6-Chloro-7-fluoro-10-(3-hydroxy-phenyl)-3a-methyl-2-[2-(4-methyl-piperidin-1-yl)-ethyl]-3a,4,9,10-tetrahydro-2,9,10a-triaza-cyclopenta[b]fluorene-1,3-dione] | 0.0398 to 0.251
COc1cc2c3c([nH]c2cc1F)[C@@H](c1cccc(O)c1)N1C(=O)N(CCN(C)C(C)C)C(=O)[C@]1(C)C3 (racemic) [Example 259, (3aSR,10RS)-7-Fluoro-10-(3-hydroyx-phenyl)-2-[2-(isopropyl-methyl-amino)-ethyl]-6-methoxy-3a-methyl-3a,4,9,10-tetrahydro-2,9,10a-triaza-cyclopenta[b]fluorene-1,3-dione] | 0.0398 to 0.251
CCOc1ccc2[nH]c3c(c2c1)C[C@@]1(C)C(=O)N(CCNCCOC)C(=O)N1[C@@H]3c1cccc(O)c1 (racemic) [Example 160, (3aSR,10RS)-6-Ethoxy-10-(3-hydroxy-phenyl)-2-[2-(2-methoxy-ethylamino)-ethyl]-3a-methyl-3a,4,9,10-tetrahydro-2,9,10a-triaza-cyclopenta[b]fluorene-1,3-dione] | 0.0398 to 0.251
CN1CCN(CCN2C(=O)N3[C@H](c4cccc(O)c4)c4[nH]c5ccc(Br)cc5c4C[C@@]3(C)C2=O)CC1 (racemic) [Example 386, (3aSR,10RS)-6-Bromo-10-(3-hydroxy-phenyl)-3a-methyl-2-[2-(4-methyl-piperazin-1-yl)-ethyl]-3a,4,9,10-tetrahydro-2,9,10a-triaza-cyclopenta[b]fluorene-1,3-dione] | ≤ 0.0398
CCOc1ccc2[nH]c3c(c2c1)C[C@@]1(C)C(=O)N(CCCNC2CC2)C(=O)N1[C@@H]3c1cccc(O)c1 (racemic) [Example 190, (3aSR,10RS)-2-(3-Cyclopropylamino-propyl)-6-ethoxy-10-(3-hydroxy-phenyl)-3a-methyl-3a,4,9,10-tetrahydro-2,9,10a-triaza-cyclopenta[b]fluorene-1,3-dione] | 0.0398 to 0.251
C[C@@]12Cc3c([nH]c4cc(F)c(Cl)cc34)[C@@H](c3cccc(O)c3)N1C(=O)N(CCCN1CCOCC1)C2=O (racemic) [Example 475, (3aSR,10RS)-6-Chloro-7-fluoro-10-(3-hydroxy-phenyl)-3a-methyl-2-(3-morpholin-4-yl-propyl)-3a,4,9,10-tetrahydro-2,9,10a-triaza-cyclopenta[b]fluorene-1,3-dione] | 0.0398 to 0.251
CN(CCO)CCN1C(=O)N2[C@H](c3cccc(O)c3)c3[nH]c4ccc(OC(F)F)cc4c3C[C@@]2(C)C1=O (racemic) [Example 288, (3aSR,10RS)-6-(1,1-Difluoro-methoxy)-2-{2-[(2-hydroxy-ethyl)-methyl-amino]-ethyl}-10-(3-hydroxy-phenyl)-3a-methyl-3a,4,9,10-tetrahydro-2,9,10a-triaza-cyclopenta[b]fluorene-1,3-dione] | 0.0398 to 0.251
CCN(CCO)CCN1C(=O)N2[C@H](c3cccc(O)c3)c3[nH]c4ccc(Br)cc4c3C[C@@]2(C)C1=O (racemic) [Example 379, (3aSR,10RS)-6-Bromo-2-{2-[ethyl-(2-hydroxy-ethyl)-amino]-ethyl}-10-(3-hydroxy-phenyl)-3a-methyl-3a,4,9,10-tetrahydro-2,9,10a-triaza-cyclopenta[b]fluorene-1,3-dione] | ≤ 0.0398
CCN(CCOC)CCN1C(=O)N2[C@H](c3cccc(O)c3)c3[nH]c4ccc(Br)cc4c3C[C@@]2(C)C1=O (racemic) [Example 380, (3aSR,10RS)-6-Bromo-2-{2-[ethyl-(2-methoxy-ethyl)-amino]-ethyl}-10-(3-hydroxy-phenyl)-3a-methyl-3a,4,9,10-tetrahydro-2,9,10a-triaza-cyclopenta[b]fluorene-1,3-dione] | 0.0398 to 0.251
CN(C)CCCN1C(=O)N2[C@H](c3cccc(O)c3)c3[nH]c4ccc(Br)cc4c3C[C@@]2(C)C1=O (racemic) [Example 230, (3aSR,10RS)-6-Bromo-2-(3-dimethylamino-propyl)-10-(3-hydroyx-phenyl)-3a-methyl-3a,4,9,10-tetrahydro-2,9,10a-triaza-cyclopenta[b]fluorene-1,3-dione] | ≤ 0.0398
CCOc1ccc2[nH]c3c(c2c1)C[C@@]1(C)C(=O)N(CCCN2CCCCCC2)C(=O)N1[C@@H]3c1cccc(O)c1 (racemic) [Example 210, (3aSR,10RS)-2-(3-Azepan-1-yl-propyl)-6-ethoxy-10-(3-hydroxy-phenyl)-3a-methyl-3a,4,9,10-tetrahydro-2,9,10a-triaza-cyclopenta[b]fluorene-1,3-dione] | 0.0398 to 0.251
CCNCCCN1C(=O)N2[C@H](c3cccc(O)c3)c3[nH]c4cc(F)c(OC)cc4c3C[C@@]2(C)C1=O (racemic) [Example 330, (3aSR,10RS)-2-(3-Ethylamino-propyl)-7-fluoro-10-(3-hydroxy-phenyl)-6-methoxy-3a-methyl-3a,4,9,10-tetrahydro-2,9,10a-triaza-cyclopenta[b]fluorene-1,3-dione] | 0.0398 to 0.251
COc1ccc2[nH]c3c(c2c1)C[C@@]1(C)C(=O)N(CCCN2CCN(C)CC2)C(=O)N1[C@@H]3c1cccc(O)c1 (racemic) [Example 150, (3aSR,10RS)-10-(3-Hydroxy-phenyl)-6-methoxy-3a-methyl-2-[3-(4-methyl-piperazin-1-yl)-propyl]-3a,4,9,10-tetrahydro-2,9,10a-triaza-cyclopenta[b]fluorene-1,3-dione] | ≤ 0.0398
COCCNCCN1C(=O)N2[C@H](c3cccc(O)c3)c3[nH]c4cc(F)c(OC)cc4c3C[C@@]2(C)C1=O (racemic) [Example 253, (3aSR,10RS)-7-Fluoro-10-(3-hydroxy-phenyl)-6-methoxy-2-[2-(2-methoxy-ethylamino)-ethyl]-3a-methyl-3a,4,9,10-tetrahydro-2,9,10a-triaza-cyclopenta[b]fluorene-1,3-dione] | 0.0398 to 0.251
C[C@@]12Cc3c([nH]c4cc(F)c(Cl)cc34)[C@@H](c3cccc(O)c3)N1C(=O)N(CCCN1CC=CC1)C2=O (racemic) [Example 477, (3aSR,10RS)-6-Chloro-2-[3-(2,5-dihydro-pyrrol-1-yl)-propyl]-7-fluoro-10-(3-hydroxy-phenyl)-3a-methyl-3a,4,9,10-tetrahydro-2,9,10a-triaza-cyclopenta[b]fluorene-1,3-dione] | 0.0398 to 0.251
C[C@@]12Cc3c([nH]c4cc(F)c(Cl)cc34)[C@@H](c3cccc(O)c3)N1C(=O)N(CCCN1CCCC1)C2=O (racemic) [Example 476, (3aSR,10RS)-6-Chloro-7-fluoro-10-(3-hydroxy-phenyl)-3a-methyl-2-(3-pyrrolidin-1-yl-propyl)-3a,4,9,10-tetrahydro-2,9,10a-triaza-cyclopenta[b]fluorene-1,3-dione] | ≤ 0.0398
CCNCCCN1C(=O)N2[C@H](c3cccc(O)c3)c3[nH]c4ccc(OC(F)F)cc4c3C[C@@]2(C)C1=O (racemic) [Example 204, (3aSR,10RS)-6-(1,1-Difluoro-methoxy)-2-(3-ethylamino-propyl)-10-(3-hydroxy-phenyl)-3a-methyl-3a,4,9,10-tetrahydro-2,9,10a-triaza-cyclopenta[b]fluorene-1,3-dione] | 0.0398 to 0.251
